Each structure is given as a SMILES string.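 In this assay, cells in 96-well plates receive the compound at five concentrations for 48 hours. Endpoints are linearly interpolated between the surrounding concentrations. GI50: concentration for 50% inhibition of growth.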 Active and inactive are the calls of the source. Cut-off read from the data, not from the text of the source: active = GI50 up to about 1.1 µM and inactive = higher. A value given as a limit tells only on which side of the number the result lay.

Common to all, as to test: NCI anticancer screen, dose series, 48 h
The test system of test [1] is A549.
Test [2] concerns ACHN.
The test system of test [3] is BT-549.
Test [4] relates to COLO 205.
Test [5] has as its system HT-29.
Test [6] relates to IGROV-1.
For test [7], the system named is K562.
Test [8] has as its system KM12.
Test [9] relates to MDA-MB-231.
The subject of test [10] is MDA-MB-435.
Test [11] concerns MOLT-4.
The subject of test [12] is Malme-3M.
Test [13] relates to NCI-H23.
For test [14], the system named is OVCAR-3.
The test system of test [15] is SF-268.
Test [16] has as its system SK-MEL-28.
In test [17] the test system is SK-OV-3.
The test system of test [18] is SN12C.
The subject of test [19] is UACC-62.

For `O=C(O)c1ccccc1C1CCCc2c1[nH]c1ccccc21` (stereo not given), the GI50 in test [1] is 79.3 µM (inactive); in test [2] it was 58.5 µM (inactive); in [3] it was 83.6 µM (inactive); in test [4], 74 µM (inactive); in test [5], 61.4 µM (inactive); in test [6], 31.5 µM (inactive). In addition, the GI50 was 34.6 µM (inactive) in [7]; 36.7 µM (inactive) in [8]; 37.3 µM (inactive) in test [9]; 31.3 µM (inactive) in [10]; 27.2 µM (inactive) in [11]; 98.9 µM (inactive) in test [12]. Further, the GI50 in [13] is 74.1 µM (inactive); in test [14], 83.4 µM (inactive); in [15] it was 66.1 µM (inactive); in [16], 96.6 µM (inactive); in [17], > 100 µM (inactive); in test [18] it was > 100 µM (inactive). Further, the GI50 in test [19] was 53.2 µM (inactive).

As to `CCCCCCCCCCCCCCCCCCNc1ccn(C2OC(COP(=O)(O)OCC3OC(n4cc(F)c(NCCCCCCCCCCCCCCCCCC)nc4=O)CC3O)C(O)C2O)c(=O)n1` (stereo not given), the GI50 in test [1] was 82.8 µM (inactive); in test [2] it was > 100 µM (inactive); in test [3], > 100 µM (inactive); in [4], > 100 µM (inactive); in test [5] it was > 100 µM (inactive); in test [6], > 100 µM (inactive). Also, the GI50 was > 100 µM (inactive) in test [7]; > 100 µM (inactive) in test [8]; 78.9 µM (inactive) in [9]; > 100 µM (inactive) in [10]; > 100 µM (inactive) in test [11]; 42.6 µM (inactive) in test [12]. The GI50 in [13], in test [14], in test [15], in test [16], in test [17] and in test [18] was > 100 µM (inactive) in each case. Also, in test [19], the GI50 was > 100 µM (inactive).

As to `COc1cc2c3cc1Oc1c(OC)c(OC)cc4c1C(Cc1ccc(O)c(c1)-c1cc(ccc1OC)CC3N(C)CC2)N(C)CC4` (stereo not given), the GI50 in [1] was 24.5 µM (inactive); in test [2] it was 15.8 µM (inactive); in [3], 19.7 µM (inactive); in test [4] it was 25.1 µM (inactive); in test [5], 6.92 µM (inactive); in test [6], 22.1 µM (inactive). The GI50 is 6 µM (inactive) in test [7]; 17.5 µM (inactive) in [8]; 13.3 µM (inactive) in [9]; 23.6 µM (inactive) in [10]; 11.8 µM (inactive) in [11]; 18.2 µM (inactive) in [12]. Besides, the GI50 in [13] was 21.4 µM (inactive); in test [14], 21.6 µM (inactive); in [15] it was 19.1 µM (inactive); in [16], 27 µM (inactive); in [17], 72.8 µM (inactive); in [18] it was 15.6 µM (inactive). In addition, in test [19], the GI50 is 23.9 µM (inactive).

In the case of `CC[C@@]1(O)C(=O)OCc2c1cc1n(c2=O)Cc2c-1nc1ccccc1c2/C=N\NC(=O)C1CCCN1` (stereo not given in full), the GI50 in test [1] was 0.826 µM (active); in test [2] it was 0.0283 µM (active); in [3], 1.49 µM (inactive); in [4], 6.05 µM (inactive); in test [5], 1.15 µM (inactive); in [6], 5.2 µM (inactive). Besides, the GI50 is 0.163 µM (active) in test [7]; 3.11 µM (inactive) in [8]; 14.7 µM (inactive) in test [9]; 2 µM (inactive) in test [10]; 0.221 µM (active) in test [11]; 1.79 µM (inactive) in [12]. The GI50 is 0.0509 µM (active) in test [13]; 4.42 µM (inactive) in test [14]; < 0.0225 µM (active) in test [15]; 6.58 µM (inactive) in test [16]; 0.442 µM (active) in [17]; 0.0275 µM (active) in test [18]. The GI50 in test [19] is < 0.0182 µM (active).

For `O=C1c2ccccc2C(=O)c2c(NC(=O)c3ccc4c5c(ncnc35)-c3ccccc3C4=O)cccc21`, the GI50 in [1] is > 100 µM (inactive); in test [2] it was > 100 µM (inactive); in test [3], 48 µM (inactive); in test [4], > 100 µM (inactive); in test [5], > 100 µM (inactive); in test [6], > 100 µM (inactive). For the same compound, the GI50 in test [7] was > 100 µM (inactive); in test [8], > 100 µM (inactive); in test [9], 32.4 µM (inactive); in [10], > 100 µM (inactive); in test [11] it was > 100 µM (inactive); in test [12], > 100 µM (inactive). For the same compound, the GI50 was 33.4 µM (inactive) in test [13]; 37.1 µM (inactive) in test [14]; 97.5 µM (inactive) in test [15]; > 100 µM (inactive) in [16]; 23.2 µM (inactive) in test [17]; > 100 µM (inactive) in [18]. Also, the GI50 in test [19] was > 100 µM (inactive).

Take `Cc1cn([C@H]2C[C@H](O)[C@@H](CO)O2)c(=O)nc1N`: the GI50 in test [1], in test [2], in [3], in [4], in test [5] and in [6] was > 100 µM (inactive) each time. Moreover, the GI50 in test [7], in test [8], in test [9], in test [10], in [11] and in [12] was > 100 µM (inactive) each time. The GI50 in [13], in [14], in test [15], in test [16], in test [17] and in test [18] was > 100 µM (inactive) throughout. The GI50 in test [19] is > 100 µM (inactive).

With `CCn1c(=O)c2c3cc(O)ccc3oc2c2ccc(O)cc21`, the GI50 in test [1] is 24.4 µM (inactive); in test [2], 21.3 µM (inactive); in test [3] it was 17.4 µM (inactive); in test [4], 17.5 µM (inactive); in [5], 25.2 µM (inactive); in test [6] it was 42.6 µM (inactive). Besides, the GI50 in test [7] was 25.9 µM (inactive); in [8], 31.8 µM (inactive); in test [9], 25.2 µM (inactive); in test [10] it was 27 µM (inactive); in test [11] it was 16.1 µM (inactive); in [12], 32.7 µM (inactive). For the same compound, the GI50 was 41.3 µM (inactive) in test [13]; 29.9 µM (inactive) in [14]; 27.5 µM (inactive) in test [15]; 35.8 µM (inactive) in test [16]; 43.6 µM (inactive) in test [17]; 29.2 µM (inactive) in test [18]. Further, in test [19], the GI50 was 20.3 µM (inactive).

On to `C/C(=N\NC(=S)NC1CCCC1)c1ccccn1`, for which the GI50 is 0.0991 µM (active) in test [1]; < 0.01 µM (active) in test [2]; 0.472 µM (active) in test [3]; < 0.01 µM (active) in test [4]; < 0.01 µM (active) in [5]; < 0.01 µM (active) in test [6]. The GI50 in test [7] was < 0.01 µM (active); in test [8], 0.0708 µM (active); in [9] it was 1.08 µM (active); in [10] it was 0.578 µM (active); in [11], < 0.01 µM (active); in test [12] it was 0.434 µM (active). For the same compound, the GI50 in [13] was < 0.0177 µM (active); in [14] it was < 0.01 µM (active); in test [15] it was 0.569 µM (active); in test [16] it was 3.28 µM (inactive); in test [17], 0.1 µM (active); in test [18] it was 0.299 µM (active). In addition, the GI50 in test [19] was 0.2 µM (active).

For `O=c1nc(N2CCCCC2)sc2[nH]c3ccccc3c12`, the GI50 in [1] was > 100 µM (inactive); in test [2], > 100 µM (inactive); in test [3] it was > 100 µM (inactive); in [4], > 100 µM (inactive); in test [5] it was 62.4 µM (inactive); in test [6], 78 µM (inactive). Moreover, the GI50 in test [7] is > 100 µM (inactive); in [8], > 100 µM (inactive); in test [9] it was 78.7 µM (inactive); in test [10], > 100 µM (inactive); in test [11], > 100 µM (inactive); in test [12], 68.4 µM (inactive). Also, the GI50 is 12.2 µM (inactive) in test [13]; 88.9 µM (inactive) in test [14]; 54.3 µM (inactive) in test [15]; > 100 µM (inactive) in [16]; > 100 µM (inactive) in test [17]; > 100 µM (inactive) in test [18]. Besides, in test [19], the GI50 was > 100 µM (inactive).

`COC(=O)C1=C(C(=O)Nc2cccnc2Cl)N(c2ccc(OC)cc2[N+](=O)[O-])C(c2ccc(C)cc2)=CC1c1ccc(OC)cc1OC` (stereo not given): the GI50 in test [1] was 6.3 µM (inactive); in test [2] it was 19.1 µM (inactive); in test [3], 8.85 µM (inactive); in test [4] it was 15.5 µM (inactive); in test [5], 3.89 µM (inactive); in test [6], 5.94 µM (inactive). In addition, the GI50 was 4.67 µM (inactive) in test [7]; 2.92 µM (inactive) in test [8]; 17.9 µM (inactive) in test [9]; 5.64 µM (inactive) in test [10]; 7.94 µM (inactive) in test [11]; 12.6 µM (inactive) in test [12]. The GI50 in [13] is 22.1 µM (inactive); in test [14], 8.57 µM (inactive); in test [15], 24.6 µM (inactive); in [16], 59.6 µM (inactive); in test [17], 23.7 µM (inactive); in test [18] it was 15.4 µM (inactive). Also, the GI50 in [19] was 24.3 µM (inactive).
